From patent EP0509845A1, “(+) and (-) enantiomers of 5-aliphatic-6-(benzoxazinyl- or benzothiazinyl)-2,3,4,5-tetrahydropyridazin-3-ones” (ORTHO PHARMACEUTICAL CORPORATION, priority 1991, dated 1992)
Where two headings read alike, the source gives them in different places.

Tested on: human platelet aggregation
Test: Platelet aggregation in vitro in platelet rich plasma
Format: cell-based
Settings: for IC50: human PRP
Method: The racemate and enantiomeric Bemoradan were tested for their effects in vitro on human platelet aggregation. Platelet rich plasma (PRP) was prepared from human donors who were free of aspirin for the preceding week. Venous blood was collected in sodium citrate vacutainer tubes and PRP was obtained by centrifuging the blood at l000 rpm for 5 min. Compounds were dissolved in methanol and added to 480 µl of PRP in a Chrono-log dual channel aggregometer l min prior to aggregant. Serotonin at 5 µM or ADP at 2 µM were the aggregating agents.

[1] = ADP at 2 µM, read-out: Antiaggregatory IC50 (µM) vs. ADP
[2] = Serotonin at 5 µM, read-out: Antiaggregatory IC50 (µM) vs. 5-HT
[3] = Table I summary, ADP at 2 µM as aggregant, read-out: Platelet aggregation (IC50) vs. ADP
[4] = Table I summary, serotonin at 5 µM as aggregant, read-out: Platelet aggregation (IC50) vs. 5-HT (serotonin)

SMILES	IC50 [1] [µM]	IC50 [2] [µM]	IC50 [3] [µM]	IC50 [4] [µM]	Potency Difference (-vs+), Platelet aggregation (IC50) vs. 5-HT (serotonin) ((-) isomer versus (+) isomer) [x]	Potency Difference (-vs+), Platelet aggregation (IC50) vs. ADP ((-) isomer versus (+) isomer) [x]
CC1CC(=O)NN=C1c1ccc2c(c1)OCC(=O)N2 (single isomer, unassigned; isomer 6) [(+) isomer, 6-(3,4-dihydro-3-oxo-l,4(2H)-benzoxazin-7-yl)-2,3,4,5-tetrahydro-5-methyl-pyridazin-3-one]	3.8	8	3.8	8		
CC1CC(=O)NN=C1c1ccc2c(c1)OCC(=O)N2 (single isomer, unassigned; isomer 6) [(-) isomer, 6-(3,4-dihydro-3-oxo-l,4(2H)-benzoxazin-7-yl)-2,3,4,5-tetrahydro-5-methyl-pyridazin-3-one]	0.32	0.5	0.32	0.5	16	12
